Assay results reported in ChEMBL document CHEMBL1201862, “PubChem BioAssay data set” (2004).
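96-well plates; 48 h exposure; 5 concentrations. Endpoints by linear interpolation between flanking doses. Not reached: highest tested concentration assigned. GI50 is the concentration that inhibits growth by half.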 Calls of active or inactive are those of the source. Cut-off read from the data, not from the text of the source: active = GI50 up to about 1.1 µM and inactive = higher.

What was measured:
Assay in all cases: growth of human tumour cells (NCI), 48 h
[1] = tested on: 786-0
[2] = tested on: A498
[3] = tested on: A549
[4] = tested on: ACHN
[5] = tested on: BT-549
[6] = tested on: CAKI-1
[7] = tested on: CCRF-CEM
[8] = tested on: COLO 205
[9] = tested on: DU-145
[10] = tested on: EKVX
[11] = tested on: HCC 2998
[12] = tested on: HCT-116
[13] = tested on: HCT-15
[14] = tested on: HL-60
[15] = tested on: HOP-62
[16] = tested on: HOP-92
[17] = tested on: HT-29
[18] = tested on: Hs-578T
[19] = tested on: IGROV-1
[20] = tested on: K562
[21] = tested on: KM12
[22] = tested on: LOX IMVI
[23] = tested on: M14
[24] = tested on: MCF7
[25] = tested on: MDA-MB-231
[26] = tested on: MDA-MB-435
[27] = tested on: MDA-N
[28] = tested on: MOLT-4
[29] = tested on: Malme-3M
[30] = tested on: NCI-H226
[31] = tested on: NCI-H23
[32] = tested on: NCI-H460
[33] = tested on: NCI-H522
[34] = tested on: NCI/ADR-RES
[35] = tested on: OVCAR-3
[36] = tested on: OVCAR-4
[37] = tested on: OVCAR-5
[38] = tested on: OVCAR-8
[39] = tested on: PC-3
[40] = tested on: RPMI-8226
[41] = tested on: RXF 393
[42] = tested on: SF-268
[43] = tested on: SF-295
[44] = tested on: SF-539
[45] = tested on: SK-MEL-28
[46] = tested on: SK-MEL-2
[47] = tested on: SK-MEL-5
[48] = tested on: SK-OV-3
[49] = tested on: SN12C
[50] = tested on: SNB-19
[51] = tested on: SNB-75
[52] = tested on: SR
[53] = tested on: SW-620
[54] = tested on: T47D
[55] = tested on: TK-10
[56] = tested on: U-251
[57] = tested on: UACC-257
[58] = tested on: UACC-62
[59] = tested on: UO-31

c1ccc(/C(=N\Nc2nc3ccccc3s2)c2ccccn2)cc1 was tested, and the GI50 [1] was 2.36 µM (inactive), the GI50 [2] was 6.15 µM (inactive) and the GI50 [3] was 3.09 µM (inactive). For the same compound, the GI50 [4] was 0.815 µM (active), the GI50 [5] was 18.8 µM (inactive) and the GI50 [6] was 2.72 µM (inactive). The GI50 [7] was 0.0603 µM (active), the GI50 [8] was 1.37 µM (inactive) and the GI50 [9] was 3.75 µM (inactive). The GI50 [10] was 0.41 µM (active), the GI50 [11] was 14.4 µM (inactive) and the GI50 [12] was 1.88 µM (inactive). The GI50 [13] was 0.622 µM, the GI50 [14] was 0.792 µM (active) and the GI50 [15] was 6.47 µM (inactive). For the same compound, the GI50 [16] was 7.31 µM (inactive), the GI50 [17] was 1.87 µM (inactive) and the GI50 [18] was 13.2 µM (inactive). For the same compound, the GI50 [19] was 4.69 µM (inactive), the GI50 [20] was 1.72 µM (inactive) and the GI50 [21] was 3.56 µM (inactive). For the same compound, the GI50 [22] was 4.04 µM (inactive), the GI50 [23] was 3.14 µM (inactive) and the GI50 [24] was 0.317 µM (active). For the same compound, the GI50 [25] was 4.74 µM (inactive), the GI50 [26] was 5.68 µM (inactive) and the GI50 [27] was 4.94 µM (inactive). The GI50 [28] was 0.346 µM (active), the GI50 [29] was 0.649 µM (active) and the GI50 [30] was 3.87 µM (inactive). The GI50 [31] was 6.82 µM (inactive), the GI50 [32] was 1.97 µM (inactive) and the GI50 [33] was 2.71 µM (inactive). For the same compound, the GI50 [34] was 2.7 µM (inactive), the GI50 [35] was 0.0948 µM (active) and the GI50 [36] was 2.66 µM (inactive). The GI50 [37] was 3.91 µM (inactive), the GI50 [38] was 2.52 µM (inactive) and the GI50 [39] was 5.7 µM (inactive). The GI50 [40] was 1.77 µM (inactive), the GI50 [41] was 4.3 µM (inactive) and the GI50 [42] was 3.13 µM (inactive). The GI50 [43] was 5.19 µM (inactive), the GI50 [44] was 7 µM (inactive) and the GI50 [45] was 8.13 µM (inactive). The GI50 [46] was 4.08 µM (inactive), the GI50 [47] was 2.49 µM (inactive) and the GI50 [48] was 8.28 µM (inactive). The GI50 [49] was 2.79 µM (inactive), the GI50 [50] was 5.77 µM (inactive) and the GI50 [51] was 19.7 µM (inactive). The GI50 [52] was 0.891 µM (active), the GI50 [53] was 3.18 µM (inactive) and the GI50 [54] was < 0.0248 µM (active). For the same compound, the GI50 [55] was 1.38 µM (inactive), the GI50 [56] was 2.84 µM (inactive) and the GI50 [57] was 2.92 µM (inactive). The GI50 [58] was 3.66 µM (inactive) and the GI50 [59] was 0.0843 µM (active).
